The values below come from patent US7618946B2, “Analgesic compounds, extracts containing same and methods of preparation” (Griffith University, priority 2003, dated 2009).

“Also recorded” adds a separate entry of the source.

The test system of data set [1] is mice. Conditions: cited from earlier work; for effect on late phase: anti-inflammatory compounds and steroids [61]; for response in both early and late phases: known analgesics [61]; for analgesia in both phases of the formalin test: [61].
For data set [2] the following is noted: cited from earlier work; for inhibition of acetic acid induced writhing: 10 and 30 mg/kg (sc) [56]; for ED50: acetic acid writhing test [52]. (In general: Writhing tests count abdominal constrictions after an irritant is injected.)
Data set [3] concerns FCA-rats. Description: side effects observed after i.v. bolus doses in FCA-rats. The class given is in vivo, Sprague-Dawley rats. Set-up: key to Intensity: 0 = none; 1 = mild; 2 = moderate; 3 = severe; 4 = extreme. The procedure: Each of the compounds F70.3.2 and F70.3.6 were dissolved in sterile saline. The compounds of interest were administered initially in a dose of 0.01 mg/kg in an injection volume of 0.5 mL. The other i.v. doses administered in this preliminary study were as follows: […]

For data set [4], the system named is FCA-rats. Description: paw pressure test in rat model of inflammatory pain (FCA). The format is in vivo, Sprague-Dawley rats. Conditions: i.v. bolus; for dose-response of antinociceptive effect (AUC versus dose): ipsilateral hindpaw, FIG. 68. The procedure: Adult male Sprague-Dawley rats were housed in a temperature controlled room (21±2° C.) with a 12 h/12 h light/dark cycle and free access to both food and water. Ethical approval for this study was obtained from the Animal Experimentation Ethics Committee of The University of Queensland.
Inflammation of the rat hindpaw was induced by intra-plantar (i.pl.) injection of Freund's Complete Adjuvant (FCA, 0.15 mL) whilst rats were under brief 3% isoflurane: 97% oxygen inhalational anaesthesia. Inflammatory pain was assessed using the paw pressure test (see below for details). The test compounds were administered on either day 5 or day 6 following i.pl. FCA administration.
Jugular vein cannulation was performed whilst rats were anaesthetised with 3% isoflurane: 97% O2 inhalational anaesthesia maintained using a calibrated Trilene vapouriser. Polyethylene cannulae (previously filled with heparinised saline) were implanted into the right common jugular vein for i.v. drug dosing. Cannulae were exteriorized by subcutaneous (s.c.) tunneling to an incision made in the interscapular area, and protected by a stainless steel spring, the base of which was positioned in a subcutaneous pocket between the scapulae. Incisions were closed with sterile silk sutures. After surgery, rats were housed singly in metabolic cages and were allowed to recover post-operatively for a minimum of 2 h before further experimentation. Food and water were available ad libitum during the recovery period.
Each of the compounds F70.3.2 and F70.3.6 were dissolved in sterile saline. The compounds of interest were administered initially in a dose of 0.01 mg/kg in an injection volume of 0.5 mL. The other i.v. doses administered in this preliminary study were as follows:
Control rats received bolus doses of i.v. saline. Antinociceptive Testing: Paw Pressure Test
For the paw pressure test, rats were gently restrained under a towel, and incremental mechanical pressure (maximum=250 g) was applied to the dorsal surface of the hindpaw. The pressure required to elicit paw withdrawal, the paw pressure threshold (PPT), was determined. The mean of 3 consecutive measurements, separated by 10 s, was determined. The same procedure was then performed on the contralateral side with the sequence of sides being alternated to preclude order effects. Similarly, rats were gently restrained under a towel for the quantification of paw volumes using a plethysmometer.
Following administration of i.v. bolus doses of each of the test compounds (F70.3.2 and F70.3.6), paw withdrawal thresholds (g) were normalized by subtraction of the individual baseline PWT values quantified immediately prior to drug administration. The area under the normalized PWT versus time (AUC) was calculated using the trapezoidal rule. Dose-response curves were constructed by plotting the AUC values versus the i.v. dose for each of F70.3.2 and F70.3.6.

For data set [5], the system named is mice. Conditions: mice [59]; cited from earlier work.
Data set [6] deals with mice. The following applies: mice [59]; cited from earlier work. This is another data set of the same source.
Data set [7] deals with Male Quackenbush mice. Description: mouse formalin assay. The format is in vivo.
Procedure: The formalin assay involves the subcutaneous injection of a small amount of formalin into the fore or hind paw of a rat or mouse and the behavioural response to this injection is recorded as a measure of pain response.
The formalin assay was preformed on male mice using morphine, and other compounds of interest, as an analgesic, to test the viability and reliability of the assay as a means of measuring pain response in mice.
Male Quackenbush mice weighing 25-35 g were used. They were housed in colony cages (400×300×130 mm; Wiretainers) with ad libitum access to food (standard rat/mouse pellets; Norco Feeds) and water. For short term storage a maximum of 15-16 mice were housed per cage while for longer periods this number was reduced to less than 10 mice per cage. Bedding material was wood shavings or more commonly recycled paper pellets (Breeders Choice).
Formalin (Ajax) was supplied as solution of approximately 37.5% formaldehyde containing 10% methanol as a preservative. […]
Morphine and other compounds of interest were injected in a volume of 10 mL/kg intraperitoneally (ip) 30 minutes prior to formalin administration. […] The sole behavioural response recorded was the amount of time the animal spent biting or licking the injected paw or leg per 5 minute block was recorded. […]
Using this value a percentage pain inhibition can be calculated using the formula:—
The mark [8] stands for this setting: i.v. 0.005 mg/kg, Apnoea, Table 19.
[9] abbreviates: i.v. 0.02 mg/kg, Apnoea, Table 19.
Setting [10] is: i.v. 0.02 mg/kg, Staring, Table 19.
The mark [11] stands for this setting: i.v. 0.005 mg/kg, Body shaking, Table 20.
The mark [12] stands for this setting: i.v. 0.01 mg/kg, Body shaking, Table 20.
Where [13] appears, read: i.v. 0.02 mg/kg, Staring, Table 20.
Where [14] appears, read: i.v. 0.05 mg/kg, Apnoea, Table 20.
Where [15] appears, read: i.v. 0.05 mg/kg, Staring, Table 20.

For the compound `COc1ccc2cc([C@H](C)C(=O)O)ccc2c1` [naproxen], the “effect on late phase” value in data set [1] is “affected”.

As for `CC1(C)CC[C@]2(C(=O)O[C@@H]3O[C@H](CO)[C@@H](O)[C@H](O)[C@H]3O)CC[C@]3(C)C(=CC[C@@H]4[C@@]5(C)CC[C@H](O[C@@H]6O[C@H](CO)[C@@H](O)[C@H](O)[C@H]6O)[C@@](C)(C(=O)O)[C@@H]5CC[C@]43C)[C@@H]2C1` [Dianoside A], the “inhibition of acetic acid induced writhing” value in data set [2] was “significantly inhibit”.

For the compound `CN1CCOC(c2ccccc2)c2ccccc2C1` (centres unmarked) [nefopam], the “response in both early and late phases” value in data set [1] was “can be reduced”.

On to `CC1(C)CC[C@]2(C(=O)O[C@@H]3O[C@H](CO[C@@H]4O[C@H](CO)[C@@H](O)[C@H](O)[C@H]4O)[C@@H](O)[C@H](O[C@@H]4O[C@H](CO)[C@@H](O)[C@H](O)[C@H]4O)[C@H]3O)CC[C@]3(C)C(=CC[C@@H]4[C@@]5(C)CC[C@H](O[C@@H]6O[C@H](CO)[C@@H](O)[C@H](O)[C@H]6O)[C@@](C)(C(=O)O)[C@@H]5CC[C@]43C)[C@@H]2C1` [Dianoside B], for which, in data set [2], the “inhibition of acetic acid induced writhing” value is listed as “significantly inhibit”.

For the compound `CC(=O)OCC12C(O)CC3(C)C(=CCC4C5(C)CCC(OC6OC(C(=O)O)C(O)C(OC7OCC(O)C(O)C7O)C6OC6OC(CO)C(O)C(O)C6O)C(C)(C)C5CCC43C)C1CC(C)(C)C(OC(=O)c1ccccc1)C2O` [Compound F70.3.2, 3-O-β-D-xylopyranosyl(1→3)-[β-D-galactopyranosyl(1→2)]-β-D-glucuronopyranosyl-21-O-benzoyl-28-O-acetyl barringtogenol C], in data set [3] (setting [8]), the Duration is 0.5 min, the Intensity is listed as 1, the “No of rats observed with side-effect” value was 1/3 and the Onset was 180 min. For the same compound, the Side effect result in data set [3] (i.v. 0.005 mg/kg, Table 19) is recorded as “Apnoea”. In data set [3] (setting [9]), the Duration is on record as 15 min, the Intensity is on record as 1, the “No of rats observed with side-effect” value is recorded as 1/3 and the Onset came out at 30 min. In data set [3] (setting [10]), the Duration came out at 15 min, the Intensity came out at 1, the “No of rats observed with side-effect” value is 1/3 and the Onset is on record as 30 min. Besides, the Side effect result in data set [3] (i.v. 0.02 mg/kg, Table 19, 0.02 mg/kg) is recorded as “Apnoea; also recorded: Staring”. In data set [4], the “antinociception, contralateral (non-inflamed) hindpaw” value is on record as “absence of antinociception”; the “dose-response of antinociceptive effect (AUC versus dose)” value is “distinct increase and then plateau”. In addition, in data set [4] (FIG. 65), the “antinociception, ipsilateral (inflamed) hindpaw (paw withdrawal threshold)” value was “dose-related increase in the antinociceptive potency”.

As for `CC(=O)OC1C(OC2OCC(OC(=O)c3ccccc3)C(OC(=O)C(C)C(C)OC(=O)c3ccccc3)C2O)C(C)(C)CC2C3=CCC4C5(C)CCC(OC6OC(C(=O)O)C(O)C(OC7OCC(O)C(O)C7O)C6OC6OC(CO)C(O)C(O)C6O)C(C)(C)C5CCC4(C)C3(C)CC(O)C21CO` [Compound F70.3.6, 3-O-β-D-xylopyranosyl(1→3)-[β-D-galactopyranosyl(1→2)]-β-D-glucuronopyranosyl-21-O-[3-(3-benzoyl-2-methylbutanoyl)-4-benzoyl-α-L-arabinopyranosyl]-22-O-acetyl barringtogenol C], the Duration was 5 min in data set [3] (setting [11]); 5 min in data set [3] (setting [12]); 15 min in data set [3] (setting [13]); 30 min in data set [3] (setting [14]); 15 min in data set [3] (setting [15]). Further, the Intensity in data set [3] (setting [11]), in data set [3] (setting [12]), in data set [3] (setting [13]), in data set [3] (setting [14]) and in data set [3] (setting [15]) was 1 throughout. The “No of rats observed with side-effect” value in data set [3] (setting [11]) is 1/3; in data set [3] (setting [12]), 1/3; in data set [3] (setting [13]), 1/3; in data set [3] (setting [14]) it was 1/1; in data set [3] (setting [15]), 1/1. Further, the Onset in data set [3] (setting [11]) is recorded as 15 min; in data set [3] (setting [12]), 30 min; in data set [3] (setting [13]), 45 min; in data set [3] (setting [14]), 5 min; in data set [3] (setting [15]) it was 30 min. Also, the Side effect result is on record as “Body” in data set [3] (i.v. 0.005 mg/kg, Table 20); “Body” in data set [3] (i.v. 0.01 mg/kg, Table 20); “Staring” in data set [3] (i.v. 0.02 mg/kg, Table 20); “Apnoea” in data set [3] (i.v. 0.05 mg/kg, Table 20, 0.05 mg/kg, onset 5 min, lasting 30 min); “Staring” in data set [3] (i.v. 0.05 mg/kg, Table 20, 0.05 mg/kg, onset 30 min, lasting 15 min). In addition, the “antinociception, contralateral (non-inflamed) hindpaw” value in data set [4] is on record as “absence of antinociception”. In addition, in data set [4] (dose range 0.002-0.01 mg/kg, FIG. 66), the “antinociception, ipsilateral hindpaw” value is on record as “dose-related increase in the antinociceptive potency”. Moreover, the “antinociceptive response, ipsilateral hindpaw, on further increases in dose” value in data set [4] (doses above 0.01 mg/kg) is given as “decreased rather than an increased antinociceptive response”. Further, in data set [4], the “dose-response of antinociceptive effect (AUC versus dose)” value was “distinct increase and then plateau”.

On to `COc1ccc2c3c1O[C@H]1[C@@H](O)C=C[C@H]4[C@@H](C2)N(C)CC[C@@]341` [codeine], for which the “response in both early and late phases” value in data set [1] is reported as “can be reduced”.

For orientation: ED50 means the dose at which the effect has come halfway, by size or by number of responders. Consider `CC(=O)Oc1ccccc1C(=O)O` [aspirin], for which the ED50 in data set [2] is recorded as 125 mg/kg. Further, in data set [5], the “inhibition of p-phenylquinone induced writhing” value was 85%. Besides, the “inhibition of acetic acid induced writhing” value in data set [6] is 80%. Also, in data set [1], the “analgesia in both phases of the formalin test” value is “analgesic in a dose dependent manner in both phases”.

Turning to `COc1ccc2c(c1)c(CC(=O)O)c(C)n2C(=O)c1ccc(Cl)cc1` [indomethacin], the “effect on late phase” value in data set [1] is on record as “affected”.

For `CN1CC[C@]23c4c5ccc(O)c4O[C@H]2[C@@H](O)C=C[C@H]3[C@H]1C5` [morphine], the 50% effective dose (ED50) in data set [7] (Mus musculus, ip, read-out: ED50 (morphine dose response curve, pain inhibition)) worked out at 4.8 mg/kg. In addition, in data set [1] (at 6 mg/kg [64]), the analgesia induced result is given as “almost complete analgesia”. The “response in both early and late phases” value in data set [1] is “can be reduced”. In data set [1] (subcutaneous, entire experimental period [63]), the “ED50, entire experimental period” value is listed as 4.8 mg/kg.

Regarding `Cc1ccccc1C(OCCN(C)C)c1ccccc1` (centres unmarked) [orphendarine], the “response in both early and late phases” value in data set [1] is on record as “can be reduced”.

`CC(=O)Nc1ccc(O)cc1` [paracetamol]: the “analgesia in both phases of the formalin test” value in data set [1] is reported as “analgesic in a dose dependent manner in both phases”.

`C[C@]12CCC(=O)C=C1CC[C@@H]1[C@@H]2[C@@H](O)C[C@@]2(C)[C@H]1CC[C@]2(O)C(=O)CO` [hydrocortisone]: the “effect on late phase” value in data set [1] is recorded as “affected”.

Consider `C[S+](C)[O-]` [DMSO control, dimethyl sulfoxide], for which the “reduction of pain response by DMSO” value in data set [7] (high dose (5%) DMSO) stood at 57%.

On to barbatoside A, for which the ED50 in data set [2] is reported as 95 mg/kg.
